Laboratory results from ChEMBL document CHEMBL5614456, “Emerging Techniques in Cancer Therapy: Precision Targeting for Improved Outcomes” (ACS Med Chem Lett, 2024).

Experiment: Inhibition of ERK phosphorylation at Thr202/Tyr204 residues in human ASPC1 cells harboring KRAS G12D mutant […] incubated for 24 hrs by ELISA
Format: cell-based
Settings: ASPC1, 24 h

In the case of `Cc1c(F)cc2c(cnn2C2CCCCO2)c1-c1c(C2CC2)cc2c(N3C[C@@H]4C[C@H]3CN4C(=O)OC(C)(C)C)nc(OC3COC3)nc2c1OCc1ccccc1` (stereo partly drawn), the IC50 is reported as 6 nM.

In the case of `Cc1c(F)cc2c(cnn2C2CCCCO2)c1-c1c(C2CC2)cc2c(N3C[C@@H]4C[C@H]3CN4C(=O)OC(C)(C)C)nc(OC3CCOCC3)nc2c1OCc1ccc(-c2cn([C@H](C(=O)N3C[C@H](O)C[C@H]3C(=O)N[C@H](CO)c3ccc(-c4ccnn4C)cc3)C(C)C)nn2)cc1` (stereo partly drawn), the IC50 is reported as 11 nM.

`Cc1ncsc1-c1ccc([C@@H](CO)NC(=O)[C@@H]2C[C@@H](O)CN2C(=O)[C@H](C(C)C)n2cc(-c3ccc(COc4c(-c5c(C)c(F)cc6c5cnn6C5CCCCO5)c(C5CC5)cc5c(N6C[C@@H]7C[C@H]6CN7C(=O)OC(C)(C)C)nc(OC6CCOCC6)nc45)cc3)nn2)cc1` (stereo partly drawn) showed an IC50 of 8 nM.

Compound `CC(C)(C)OC(=O)N1C[C@@H]2C[C@H]1CN2c1nc(OC2CCOCC2)nc2c(OCc3ccccc3)c(Br)c(C3CC3)cc12` has an IC50 of 15 nM.

Work on `Cc1ncsc1-c1ccc(C2(NC(=O)[C@@H]3C[C@@H](O)CN3C(=O)[C@H](C(C)C)n3cc(-c4ccc(COc5c(-c6c(C)c(F)cc7c6cnn7C6CCCCO6)c(C6CC6)cc6c(N7C[C@@H]8C[C@H]7CN8C(=O)OC(C)(C)C)nc(OC7CCOCC7)nc56)cc4)nn3)CC2)cc1` (stereo partly drawn) yielded an IC50 of 7 nM.

`CCSc1nc(N2C[C@@H]3C[C@H]2CN3C(=O)OC(C)(C)C)c2cc(C3CC3)c(Br)c(OCc3ccccc3)c2n1` gave an IC50 of 26 nM.

Compound `CCCCCCCCCCCCSc1nc(N2C[C@@H]3C[C@H]2CN3C(=O)OC(C)(C)C)c2cc(C3CC3)c(Br)c(OCc3ccccc3)c2n1` has an IC50 of 18 nM.

Compound `CCSc1nc(N2C[C@@H]3C[C@H]2CN3C(=O)OC(C)(C)C)c2cc(I)c(Br)c(OCc3ccccc3)c2n1` has an IC50 of 17 nM.
